{
  "source": "paper PMC11054271",
  "about": "“ABCG2 Transports the Flukicide Nitroxynil and Affects Its Biodistribution and Secretion into Milk” (Pharmaceutics, 2024)",
  "origin": "cited, not measured here",
  "tested_on": "Abcg2",
  "design": "method as in PMID 34062171",
  "conditions": "mice; cited from earlier work",
  "data": [
    {"smiles": "Cc1c(Cl)cccc1Nc1ccccc1C(=O)O", "note": "[tolfenamic acid]", "values": [
      {"measurement": "Testis accumulation, fold higher in Abcg2−/− compared to wild-type", "result": "~3", "unit": "fold"}
    ]}
  ]
}
